Source: publication PMC6268785, “Inhibition of PCAF Histone Acetyltransferase, Cytotoxicity and Cell Permeability of 2-Acylamino-1-(3- or 4-Carboxy-phenyl)benzamides” (Molecules, 2012)
Read-outs that look alike come from different tables or passages of the source.

Legend:
[1] = target: T1, PCAF HAT (Homo sapiens, UniProt Q92831); test: PCAF HAT inhibition assay (fluorescent, CPM detection of CoA-SH); assay type: biochemical; details: for inhibition at 100 µM: read-out: PCAF HAT inhibition (%)
T1 construct: purchased Cayman Co., Ann Arbor, MI, USA
Procedure: The structural analogues were derived from anthranilic acid by introducing the acyl chain at the 2- position, and 3- or 4-carboxyaniline at the 1-position, respectively. The ability of new compounds 8–19 to inhibit HAT activity was analyzed in vitro using PCAF HAT enzymatic kit (Cayman Co., Ann Arbor, MI, USA). Anacardic acid, a commercially available HAT inhibitor, was used as a positive control.
The PCAF HAT inhibition studies were performed using a fluorescent assay as described previously. The enzyme activity was measured by the detection of CoA-SH by the fluorescent dye 7-(diethylamino)-3-(4'-maleimidylphenyl)-4-methylcoumarin (CPM). In brief, assay buffer (15 μL), acetyl CoA (5 μL) and diluted PCAF (10 μL) were added to all the wells. Dimethylsulfoxide (DMSO, 5 μL) was added to 100% initial activity wells and the background wells, and inhibitor (100 μM, 5 μL) was added to the inhibitor wells. PCAF HAT peptide (20 μL) was added to all the wells except the background wells. The wells were incubated on a shaker for 5 minutes at room temperature and HAT stop reagent (50 μL) was added to all the wells including the background wells. HAT peptide (20 μL) was added to the background wells only. HAT developer (100 μL) was added to all the wells including the background wells and incubated for 20 minutes at room temperature. Then, read the plate using an excitation wavelength of 360–390 nm and an emission wavelength of 450–470 nm. Subtract the fluorescence of the background wells from the fluorescence of the 100% initial activity and the inhibitor wells. The percent inhibition for each sample was determined as follows: [drawing 2]

[2] = test system: HT-29 (human colon cancer); test: SRB cytotoxicity assay, HT-29; assay type: cell-based; details: read-out: IC50 against HT-29
Procedure: (§1) The cell lines used were HSF (normal cell), HT-29 (human colon cancer), HCT-116 (human colon cancer), MDA-231 (human breast cancer), A549 (human lung cancer), Hep3B (human hepatoma cancer), HeLa (human cervical cancer) and Caki (human kidney cancer) supplied from the Korean Cell Line Bank (Daejeon, Korea). Cells were grown as monolayer cultures in the T-175 flasks (Costar), were subcultured twice a week at 37 °C in an atmosphere containing 5% CO2 in air and 100% relative humidity and maintained at low passage number (5 to 20). RPMI medium 1640, Dulbecco’s modified eagle medium (DMEM, Gibco), fetal bovin serum, (FBS, Gibco), penicillin-streptomycin (P-S, Gibco), phosphate buffered saline pH 7.4 (PBS, Gibco), 0.25% trypsin-EDTA (Gibco), 0.4% trypan blue, dimethyl sulfoxide (DMSO) (Sigma-Aldrich), trichloroacetic acid (Sigma-Aldrich) and sulforhodamine B (SRB) (Sigma-Aldrich) were used.
(§2) Adherent cells at the logarithmic growth phase were detached the by an addition of 3 mL of trypsin-EDTA (1:250) mixture, and they were incubated for 5 min at 37 °C. The cells were plated (200 μL per well) in 96 well flat-bottom microplates at densities of 3 × 10^3 cells per well. The cells were plated in sextuplicate (six replicate wells per cell density) and experiments were performed three times. Microplates were left for 6 h at 37 °C, so that the cells were able to attach to the bottom of the wells before the fixation protocol was carried out.
(§3) […]. Then, cold (4 °C) 50% TCA (50 μL) was added to the top of 200 μL culture medium in each well to produce a final TCA concentration of 10%. Microplates were left for 30 min at 4 °C, and subsequently, they were washed five times with deionized water. Microplates were then left to dry at room temperature for at least 24 h.
(§4) The SRB assay was carried out as previously described. In brief, 0.4% (w/v) sulforhodamine B (70 μL) in acetic acid solution were added to each well and left at room temperature for 20 min. SRB was removed and the plates washed five times with 1% acetic acid before air drying. Bound SRB was solubilized with 10 mM unbuffered Tris-base solution (200 μL) and the plates were left on a plate shaker for at least 10 min. Absorbance was read in a 96-well plate reader at 492 nm subtracting the background measurement at 620 nm. The test optical density (OD) value was defined as the absorbance of each individual well, minus the blank value.

[3] = test system: HCT-116 (human colon cancer); test: SRB cytotoxicity assay, HCT-116; assay type: cell-based; details: read-out: IC50 against HCT-116
Procedure: as §1, §2, §3, §4

[4] = test system: MDA-231 (human breast cancer); test: SRB cytotoxicity assay, MDA-231; assay type: cell-based; details: read-out: IC50 against MDA-231
Procedure: as §1, §2, §3, §4

[5] = test system: A549 (human lung cancer); test: SRB cytotoxicity assay, A549; assay type: cell-based; details: read-out: IC50 against A549
Procedure: as §1, §2, §3, §4

[6] = test system: Hep3B (human hepatoma cancer); test: SRB cytotoxicity assay, Hep3B; assay type: cell-based; details: mean ± standard error, read-out: IC50 against Hep3B
Procedure: as §1, §2, §3, §4

[7] = test system: Caki (human kidney cancer); test: SRB cytotoxicity assay, Caki; assay type: cell-based; details: mean ± standard error, read-out: IC50 against Caki
Procedure: as §1, §2, §3, §4

[8] = test system: HSF (normal cell); test: SRB cytotoxicity assay, HSF normal cell line; assay type: cell-based; details: read-out: IC50 against HSF
Procedure: as §1, §2, §3, §4

[9] = test system: HeLa (human cervical cancer); test: SRB cytotoxicity assay, HeLa; assay type: cell-based; details: mean ± standard error, read-out: IC50 against HeLa
Procedure: as §1, §2, §3, §4

[10] = test system: seven human cancer cell lines; test: SRB cytotoxicity assay, panel of seven cancer cell lines (summary in words); assay type: cell-based
Procedure: as §1
Adherent cells at the logarithmic growth phase were detached the by an addition of 3 mL of trypsin-EDTA (1:250) mixture, and they were incubated for 5 min at 37 °C. […]
The SRB assay was carried out as previously described. […] Absorbance was read in a 96-well plate reader at 492 nm subtracting the background measurement at 620 nm. The test optical density (OD) value was defined as the absorbance of each individual well, minus the blank value.

[11] = test system: Caco-2 cell monolayers; test: Caco-2 cell permeability assay; assay type: in vitro ADME, human; details: Caco-2, apical to basolateral, initial concentration 50 μM; mean ± SD
[12] = Homo sapiens, HT-29, mean ± standard error
[13] = Homo sapiens, HCT-116, mean ± standard error
[14] = Homo sapiens, MDA-MB-231, mean ± standard error
[15] = Homo sapiens, A549, mean ± standard error

T1 sequence (Q92831 492-658 limits assumed): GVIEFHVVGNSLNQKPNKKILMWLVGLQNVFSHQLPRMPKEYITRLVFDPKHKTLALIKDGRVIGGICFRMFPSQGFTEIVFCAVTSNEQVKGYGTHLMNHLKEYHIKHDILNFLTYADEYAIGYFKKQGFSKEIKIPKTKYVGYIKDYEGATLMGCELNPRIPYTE

| Compound | PCAF HAT inhibition (%) ([1]; 100 μM compound) | IC50 [8] [µM] | IC50 ([2]; mean ± standard error) [µM] | IC50 ([3]; mean ± standard error) [µM] | IC50 ([4]; mean ± standard error) [µM] | IC50 ([5]; mean ± standard error) [µM] | IC50 [6] [µM] | IC50 [9] [µM] | IC50 [7] [µM] | further results |
| --- | --- | --- | --- | --- | --- | --- | --- | --- | --- | --- |
| CCCCCCCCCCCCCCCc1cccc(O)c1C(=O)O [AA, Anacardic acid, reference compound] | – | > 100 | – | – | – | – | – | – | – | inhibition at 100 µM ([1]; 100 μM compound): 68%; IC50 [2, 12]: 60.4 ± 6.36 µM; IC50 [3, 13]: 96.3 ± 4.33 µM; IC50 [4, 14]: 44.3 ± 4.2 µM; IC50 [5, 15]: 70.76 ± 0.41 µM; IC50 ([6]; Homo sapiens, Hep3B): > 100 µM; IC50 ([7]; Homo sapiens): > 100 µM |
| 2-Octanoylamino-1-(3-carboxyphenyl)benzamide [Compound 11] | – | > 100 | > 100 | > 100 | > 100 | > 100 | > 100 | > 100 | > 100 | PCAF HAT inhibition (%) ([1]; 100 μM compound, 100 µM): 52% |
| 2-Hexanoylamino-1-(4-carboxyphenyl)benzamide [Compound 8] | 67 | > 100 | > 100 | > 100 | > 100 | > 100 | > 100 | – | > 100 | – |
| 2-Hexanoylamino-1-(3-carboxyphenyl)benzamide [Compound 9] | – | > 100 | > 100 | > 100 | > 100 | > 100 | > 100 | – | > 100 | – |
| Nc1ccccc1C(=O)O [A, Anthranilic acid, reference compound] | – | > 100 | – | – | – | – | – | – | – | inhibition at 100 µM [1]: 34%; IC50 [2, 12]: > 100 µM; IC50 [3, 13]: > 100 µM; IC50 [4, 14]: > 100 µM; IC50 [5, 15]: > 100 µM; IC50 ([6]; Homo sapiens, Hep3B): > 100 µM; IC50 ([9]; Homo sapiens, HeLa): > 100 µM; IC50 ([7]; Homo sapiens): > 100 µM; cytotoxic activity against cancer cell lines (in words) [10]: inactive against most of cancer cell lines |
| 2-Hexadecanoylamino-1-(3-carboxyphenyl)benzamide [Compound 19] | – | > 100 | 44.8 ± 2.98 | 40.3 ± 4.3 | > 100 | 40.5 ± 3.59 | 43.8 ± 5.91 | 36.9 ± 3.76 | 82.6 ± 5.89 | PCAF HAT inhibition (%) ([1]; 100 μM compound, 100 µM): 61% |
| 2-Tetradecanoylamino-1-(3-carboxyphenyl)benzamide [Compound 17] | 79 | > 100 | 54.9 ± 3.49 | 29.2 ± 3.86 | 62.43 ± 0.58 | 32.1 ± 1.36 | 57.52 ± 0.26 | 55 ± 3.14 | 55.9 ± 5.09 | Measured Papp [11]: 71.48 ± 4.67 ×10^−6 cm/s |
| 2-Tetradecanoylamino-1-(4-carboxyphenyl)benzamide [Compound 16] | 72 | > 100 | 54.8 ± 1.05 | 43.9 ± 2.39 | 79.1 ± 3.27 | 46.2 ± 0.83 | 73.3 ± 9.61 | 56.5 ± 0.87 | 63.08 ± 0.21 | Measured Papp [11]: 68.21 ± 3.56 ×10^−6 cm/s |

Continued, in another order:

| PCAF HAT inhibition (%) ([1]; 100 μM compound) | Compound | IC50 [8] [µM] | IC50 ([2]; mean ± standard error) [µM] | IC50 ([3]; mean ± standard error) [µM] | IC50 ([4]; mean ± standard error) [µM] | IC50 ([5]; mean ± standard error) [µM] | IC50 [6] [µM] | IC50 [9] [µM] | IC50 [7] [µM] | further results |
| --- | --- | --- | --- | --- | --- | --- | --- | --- | --- | --- |
| 46 | 2-Dodecanoylamino-1-(4-carboxyphenyl)benzamide [Compound 14] | > 100 | > 100 | 53.3 ± 2.05 | > 100 | > 100 | > 100 | > 100 | > 100 | – |
| 45 | 2-Decanoylamino-1-(3-carboxyphenyl)benzamide [Compound 13] | > 100 | > 100 | > 100 | > 100 | > 100 | > 100 | > 100 | > 100 | – |
| 55 | 2-Decanoylamino-1-(4-carboxyphenyl)benzamide [Compound 12] | > 100 | > 100 | > 100 | > 100 | > 100 | > 100 | > 100 | 63.8 ± 2.39 | – |
| 42 | 2-Dodecanoylamino-1-(3-carboxyphenyl)benzamide [Compound 15] | > 100 | > 100 | > 100 | > 100 | > 100 | > 100 | > 100 | > 100 | – |
| 66 | 2-Octanoylamino-1-(4-carboxyphenyl)benzamide [Compound 10] | > 100 | > 100 | > 100 | 51.8 ± 0.68 | > 100 | > 100 | > 100 | 69.5 ± 7.16 | – |
